Test results reported in article PMC7072648, “N-(2-Hydroxyphenyl)-1-[3-(2-oxo-2,3-dihydro-1H- benzimidazol-1-yl)propyl]piperidine-4-Carboxamide (D2AAK4), a Multi-Target Ligand of Aminergic GPCRs, as a Potential Antipsychotic” (Biomolecules, 2020).
“And” between values parts separate entries of the source, which are not always exact repeats. Equal entries are not always repeated.

Tests used:
human D3 receptor = human D3 receptor (Homo sapiens, UniProt P35462); assay: Radioligand binding assay at human D3 receptor; conditions: mean ± SEM, two independent experiments in duplicate; read-out: pKi hD3 (converted)
Sequence of human D3 receptor (P35462 whole entry): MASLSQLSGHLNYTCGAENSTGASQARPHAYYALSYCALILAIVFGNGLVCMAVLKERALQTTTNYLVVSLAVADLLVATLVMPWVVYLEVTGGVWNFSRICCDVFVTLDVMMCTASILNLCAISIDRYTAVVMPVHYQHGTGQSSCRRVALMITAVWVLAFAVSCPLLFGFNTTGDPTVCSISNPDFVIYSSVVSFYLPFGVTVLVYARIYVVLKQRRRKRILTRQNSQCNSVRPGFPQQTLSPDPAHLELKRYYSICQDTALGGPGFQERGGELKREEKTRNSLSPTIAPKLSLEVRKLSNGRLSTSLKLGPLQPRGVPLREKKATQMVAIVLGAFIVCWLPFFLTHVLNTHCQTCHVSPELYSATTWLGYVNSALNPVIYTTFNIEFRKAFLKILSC
Protocol: (§1) Radioligand binding assays were performed on cell membrane preparations from cell lines stably expressing the human cloned receptors. […] Experimental conditions for binding assays at D1, D2, D3, 5-HT1A and 5-HT2A receptors have been previously reported. 0.7 nM [^3H]-SCH23390, 2 nM [^3H]-SB269970 (5-HT7), 2 nM [^3H]-Pyrilamine (H1) and 2 nM [^3H]-Pirenzepine (M1) were employed as radioligands. […] Affinity (equilibrium dissociation constant (Ki) and pKi (−logKi)) values were calculated as previously reported. Affinity values of reference compounds that were assayed in parallel to D2AAK4 as internal controls in the binding assays are given in Supplementary Figure S1 (legend).

human M1 receptor = molecular target: T1, human M1 receptor (Homo sapiens, UniProt P11229); assay: Radioligand binding assay at human M1 receptor; conditions: mean ± SEM; full displacement not achieved at maximum concentration, pKi could be not accurately estimated; read-out: pKi hM1 (converted)
T1 sequence (P11229 1-460): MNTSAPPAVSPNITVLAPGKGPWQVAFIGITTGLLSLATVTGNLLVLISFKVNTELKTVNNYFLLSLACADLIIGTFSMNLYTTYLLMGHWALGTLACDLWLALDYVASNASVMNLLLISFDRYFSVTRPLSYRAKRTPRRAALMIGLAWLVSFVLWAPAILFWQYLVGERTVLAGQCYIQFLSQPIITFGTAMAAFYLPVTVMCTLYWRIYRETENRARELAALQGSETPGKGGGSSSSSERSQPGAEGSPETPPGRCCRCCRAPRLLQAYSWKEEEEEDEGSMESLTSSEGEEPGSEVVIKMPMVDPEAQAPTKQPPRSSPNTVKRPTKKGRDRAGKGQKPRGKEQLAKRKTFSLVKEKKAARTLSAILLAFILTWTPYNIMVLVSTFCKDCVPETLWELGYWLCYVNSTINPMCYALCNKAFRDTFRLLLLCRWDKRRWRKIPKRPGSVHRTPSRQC
Protocol: as §1

mice [1] = assay: Passive avoidance (PA) task, memory consolidation; format: in vivo; conditions: 100 mg/kg i.p. immediately after pretest, retest 24 h later; p < 0.0001 vs vehicle
Protocol: The PA apparatus was described previously. The PA procedure was also previously described.
Mice received D2AAK4 immediately after being pretested on Day 1, and then they were retested (without injections) 24 h later. The changes in PA performance were calculated as the difference between retention and training latencies (i.e., latency index (IL)). More specifically, IL was calculated for each animal and presented as the ratio (as described in [12, 29]).

mice [2] = assay: Elevated plus maze (EPM) test; format: in vivo; conditions: 100 mg/kg i.p., 30 and 60 min after administration
Protocol: The EPM apparatus was used as described previously. The EPM procedure was described in our previous papers. The percentage (%) of time spent in the open arms and % of entries into the open arms were calculated. Moreover, the number of entries into the closed arms was recorded as the motor activity indicator of tested mice.
To determine D2AAK4 acute effect on anxiety-like behavior, the studied compound (100 mg/kg; i.p.) (n = 8) or vehicle (i.p.) (n = 8) was injected 30 and 60 min before the EPM test.

human 5-HT2A receptor [3] = molecular target: T2, human 5-HT2A receptor (Homo sapiens, UniProt P28223); assay: Radioligand binding assay at human 5-HT2A receptor
T2 construct: expressed in transfected cells
T2 sequence (P28223 whole entry): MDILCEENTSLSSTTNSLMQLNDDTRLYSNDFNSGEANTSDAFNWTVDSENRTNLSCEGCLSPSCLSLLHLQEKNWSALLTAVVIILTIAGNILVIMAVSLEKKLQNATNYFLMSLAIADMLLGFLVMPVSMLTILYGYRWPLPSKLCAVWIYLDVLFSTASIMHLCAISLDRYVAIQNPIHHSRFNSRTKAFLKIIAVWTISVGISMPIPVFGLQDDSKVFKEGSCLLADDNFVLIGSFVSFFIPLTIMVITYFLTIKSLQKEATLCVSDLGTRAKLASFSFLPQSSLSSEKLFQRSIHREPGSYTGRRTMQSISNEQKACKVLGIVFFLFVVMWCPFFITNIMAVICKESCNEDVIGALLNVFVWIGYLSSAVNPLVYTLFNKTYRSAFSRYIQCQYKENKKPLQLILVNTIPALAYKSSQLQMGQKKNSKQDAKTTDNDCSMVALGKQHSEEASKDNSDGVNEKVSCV
Protocol: as §1

mice [4] = assay: Motor coordination, rotarod and chimney tests; format: in vivo; conditions: 100 mg/kg i.p., 60 min after injection
Protocol: Motor coordination has been assessed in mice using the rotarod test and the chimney test using the same procedure as described in our earlier work. […] D2AAK1 was previously studied using the same dose so we decided to select the dose of 100 mg/kg.

human D2S receptor [5] = molecular target: T3, human D2S receptor (Homo sapiens, UniProt P14416); assay: Radioligand binding assay at human D2 receptor; conditions: mean ± SEM, two independent experiments in duplicate; read-out: pKi hD2 (converted)
T3 construct: expressed in transfected cells
T3 sequence (P14416 1-414 isoform P14416-2): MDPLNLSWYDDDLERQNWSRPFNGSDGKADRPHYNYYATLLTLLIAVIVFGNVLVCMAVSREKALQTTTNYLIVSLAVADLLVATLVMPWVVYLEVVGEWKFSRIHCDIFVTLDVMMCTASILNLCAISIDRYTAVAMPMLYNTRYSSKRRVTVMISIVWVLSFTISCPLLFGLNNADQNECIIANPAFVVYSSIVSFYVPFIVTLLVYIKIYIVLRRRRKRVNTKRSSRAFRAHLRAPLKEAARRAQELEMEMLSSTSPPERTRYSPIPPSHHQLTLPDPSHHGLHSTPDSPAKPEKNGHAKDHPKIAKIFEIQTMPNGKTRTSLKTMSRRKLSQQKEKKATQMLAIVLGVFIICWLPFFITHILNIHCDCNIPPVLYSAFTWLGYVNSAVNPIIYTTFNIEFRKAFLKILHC
Protocol: Radioligand binding assays were performed on cell membrane preparations from cell lines stably expressing the human cloned receptors. Chinese hamster ovary K1 (CHO-K1) cell lines stably expressing human D2S, 5-HT2A or H1 receptors and human embryonic kidney 293 (HEK293) cell lines stably expressing human 5-HT1A or 5-HT7(a) receptors were in-house available, whereas CHO-K1 cell lines stably expressing human D1 or D3 receptors (Perkin Elmer, Waltham, MA, USA) and Chem-1 cell line stably expressing human M1 receptor (Millipore, Merck KGaA, Darmstadt, Germany) were commercially available. Experimental conditions for binding assays at D1, D2, D3, 5-HT1A and 5-HT2A receptors have been previously reported. 0.7 nM [^3H]-SCH23390, 2 nM [^3H]-SB269970 (5-HT7), 2 nM [^3H]-Pyrilamine (H1) and 2 nM [^3H]-Pirenzepine (M1) were employed as radioligands. […] Affinity (equilibrium dissociation constant (Ki) and pKi (−logKi)) values were calculated as previously reported. Affinity values of reference compounds that were assayed in parallel to D2AAK4 as internal controls in the binding assays are given in Supplementary Figure S1 (legend).

human 5-HT7(a) receptor = molecular target: T4, human 5-HT7(a) receptor (Homo sapiens, UniProt P34969); assay: Radioligand binding assay at human 5-HT7 receptor; conditions: mean ± SEM; full displacement not achieved at maximum concentration, pKi could be not accurately estimated; read-out: pKi h5-HT7 (converted)
T4 construct: expressed in transfected cells
T4 sequence (P34969 1-445 isoform P34969-2): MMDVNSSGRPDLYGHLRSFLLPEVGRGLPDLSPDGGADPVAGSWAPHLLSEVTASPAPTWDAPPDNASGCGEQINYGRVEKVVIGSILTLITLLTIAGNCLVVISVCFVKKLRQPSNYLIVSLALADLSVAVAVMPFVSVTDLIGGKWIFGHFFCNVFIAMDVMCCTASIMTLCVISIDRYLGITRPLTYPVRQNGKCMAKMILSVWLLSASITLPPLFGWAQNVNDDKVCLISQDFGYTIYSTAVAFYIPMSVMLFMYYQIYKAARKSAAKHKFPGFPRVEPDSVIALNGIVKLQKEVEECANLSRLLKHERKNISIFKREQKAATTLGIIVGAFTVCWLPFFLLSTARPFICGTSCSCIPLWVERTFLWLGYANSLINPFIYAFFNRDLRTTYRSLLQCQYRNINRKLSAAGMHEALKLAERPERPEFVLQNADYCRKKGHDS
Protocol: as §1

human D2S receptor [6] = molecular target: T3, human D2S receptor; conditions: 10 µM compound versus 10 µM dopamine, cAMP assay; cited from earlier work
human D2S receptor [7] = molecular target: T3, human D2S receptor; assay: Functional assay of cAMP signaling at D2 receptors (CHO-K1 cells); format: cell-based
Protocol: Compound was initially assessed at 10 µM concentration either as agonist or as antagonist of 10 µM dopamine response. Dopamine (10 nM–1 mM) was used as reference agonist in these assays.

human 5-HT2A receptor [8] = molecular target: T2, human 5-HT2A receptor; assay: Functional assay of inositol phosphate (IP) production at 5-HT2A receptors (CHO-K1 cells); format: cell-based
mice [9] = assay: Amphetamine-induced hyperactivity; conditions: 100 mg/kg i.p. coadministered with amphetamine 5 mg/kg s.c.; p < 0.001 vs amphetamine-treated group
human H1 receptor = molecular target: T5, human H1 receptor (Homo sapiens, UniProt P35367); assay: Radioligand binding assay at human H1 receptor; conditions: mean ± SEM, two independent experiments in duplicate; read-out: pKi hH1 (converted)
T5 construct: expressed in transfected cells
T5 sequence (P35367 whole entry): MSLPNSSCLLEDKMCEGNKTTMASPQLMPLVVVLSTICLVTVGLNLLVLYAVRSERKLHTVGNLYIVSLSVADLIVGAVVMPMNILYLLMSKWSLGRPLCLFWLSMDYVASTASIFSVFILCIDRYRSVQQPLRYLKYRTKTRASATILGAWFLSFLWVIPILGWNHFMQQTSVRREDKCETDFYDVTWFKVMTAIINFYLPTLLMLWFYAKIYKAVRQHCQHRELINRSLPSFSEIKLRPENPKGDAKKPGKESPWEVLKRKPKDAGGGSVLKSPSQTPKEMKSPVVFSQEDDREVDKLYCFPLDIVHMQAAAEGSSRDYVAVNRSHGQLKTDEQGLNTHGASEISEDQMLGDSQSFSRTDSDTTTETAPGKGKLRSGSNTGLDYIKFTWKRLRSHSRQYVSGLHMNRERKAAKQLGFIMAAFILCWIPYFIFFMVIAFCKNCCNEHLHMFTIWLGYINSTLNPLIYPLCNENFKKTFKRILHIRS
Protocol: as §1

human 5-HT1A receptor = molecular target: T6, human 5-HT1A receptor (Homo sapiens, UniProt P08908); assay: Radioligand binding assay at human 5-HT1A receptor; conditions: mean ± SEM, read-out: % inh. at 10 μM (5-HT1A)
T6 construct: expressed in transfected cells
T6 sequence (P08908 1-422): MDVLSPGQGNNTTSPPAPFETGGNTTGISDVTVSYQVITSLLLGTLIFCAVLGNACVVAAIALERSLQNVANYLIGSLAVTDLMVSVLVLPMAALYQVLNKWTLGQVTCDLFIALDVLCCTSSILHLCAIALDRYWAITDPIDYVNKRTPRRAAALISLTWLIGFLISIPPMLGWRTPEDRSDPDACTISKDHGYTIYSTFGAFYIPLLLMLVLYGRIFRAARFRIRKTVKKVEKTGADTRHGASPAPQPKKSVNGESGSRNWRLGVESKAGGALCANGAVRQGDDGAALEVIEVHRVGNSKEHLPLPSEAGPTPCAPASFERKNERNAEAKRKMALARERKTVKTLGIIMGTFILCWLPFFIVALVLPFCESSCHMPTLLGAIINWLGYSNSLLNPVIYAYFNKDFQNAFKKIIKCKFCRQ
Protocol: as §1

human D1 receptor = human D1 receptor (Homo sapiens, UniProt P21728); assay: Radioligand binding assay at human D1 receptor; conditions: mean ± SEM, two independent experiments in duplicate; read-out: pKi hD1 (converted)
Sequence of human D1 receptor (P21728 whole entry): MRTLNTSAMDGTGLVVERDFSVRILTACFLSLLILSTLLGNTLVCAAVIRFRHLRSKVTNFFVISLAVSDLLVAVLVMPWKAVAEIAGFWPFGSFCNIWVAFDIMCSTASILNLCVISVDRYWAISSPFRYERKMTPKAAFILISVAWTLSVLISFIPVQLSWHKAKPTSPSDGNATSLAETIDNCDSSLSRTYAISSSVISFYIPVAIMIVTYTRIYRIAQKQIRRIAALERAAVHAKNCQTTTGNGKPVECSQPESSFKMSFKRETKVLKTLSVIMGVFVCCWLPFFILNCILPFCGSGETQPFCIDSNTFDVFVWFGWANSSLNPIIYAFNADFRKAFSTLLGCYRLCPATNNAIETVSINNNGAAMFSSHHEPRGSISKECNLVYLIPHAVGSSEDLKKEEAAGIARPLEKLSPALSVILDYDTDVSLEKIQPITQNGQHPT
Protocol: as §1

human 5-HT2A receptor [10] = molecular target: T2, human 5-HT2A receptor; conditions: atypical antipsychotics, literature values, no reference given; cited from earlier work

SMILES: O=C(Nc1ccccc1O)C1CCN(CCCn2c(=O)[nH]c3ccccc32)CC1 [D2AAK4, N-(2-hydroxyphenyl)-1-[3-(2-oxo-2,3-dihydro-1H-benzimidazol-1-yl)propyl]piperidine-4-carboxamide]
- Ki (human D3 receptor): 9.33 µM
- Ki (human M1 receptor): 3.89 µM
- latency index (IL) values, memory consolidation (mice [1]): statistically significant increase
- % of the time spent in the open arms (mice [2]; p < 0.0001): decrease
- % of the open arm entries (mice [2]; p = 0.0272 and p = 0.0092): decrease
- 5-HT2A/D2 affinity ratio (Ki D2/Ki 5-HT2A), times higher affinity for 5-HT2A (human 5-HT2A receptor [3]; 5-HT2A versus D2 receptor): 3.67 times
- Ki (human 5-HT2A receptor [3]; mean ± SEM, three independent experiments in duplicate, read-out: pKi h5-HT2A (converted)): 0.49 µM
- motor coordination in rotarod and chimney tests (mice [4]): does not impair mouse motor coordination
- Ki (human D2S receptor [5]): 1.86 µM
- Ki (human 5-HT7(a) receptor): 6.61 µM
- % inh. at 10 µM (inhibition of dopamine response), hD2 (human D2S receptor [6]): 12.1 ± 6.0% and 12%
- % inh. at 100 µM (inhibition of dopamine response), hD2 (human D2S receptor [7]; 100 µM compound (maximal assayed) versus 10 µM dopamine, cAMP assay): 44%
- inhibition at 100 µM (human D2S receptor [7]; CHO-K1, read-out: % inh. at 100 µM (inhibition of dopamine response), hD2, 100 µM compound (maximal assayed) versus 10 µM dopamine, cAMP assay): 44.1 ± 1.5%
- agonist efficacy at 5-HT2A (IP signaling) (human 5-HT2A receptor [8]; 0.1 nM to 100 µM): unable to promote IP signaling
- inhibition at 10 µM (human 5-HT2A receptor [8]; CHO-K1, read-out: % inh. at 10 µM (inhibition of 5-HT response), h5-HT2A, 10 µM compound versus 1 µM 5-HT, IP assay): 97.4 ± 1.6%
- IC50 (human 5-HT2A receptor [8]; versus 1 µM 5-HT-stimulated IP production, read-out: IC50, 5-HT2A antagonist): 0.714 µM
- amphetamine-induced hyperactivity (mice [9]): decreased amphetamine-induced hyperactivity
- Ki (human H1 receptor): 3.89 µM
- inhibition at 10 µM (human 5-HT1A receptor): 9.7 ± 0.4%
- Ki (human D1 receptor): 2.51 µM

SMILES: Cc1nc2n(c(=O)c1CCN1CCC(c3noc4cc(F)ccc34)CC1)CCCC2O (stereo not shown) [paliperidone]
- 5-HT2A/D2 affinity ratio (human 5-HT2A receptor [10]): 2.16

SMILES: O=C1Cc2cc(CCN3CCN(c4nsc5ccccc45)CC3)c(Cl)cc2N1 [ziprasidone]
- 5-HT2A/D2 affinity ratio (human 5-HT2A receptor [10]): ~ 5.60
